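Where inhibition never reached the appropriate level, the endpoint shown equals the highest concentration tested. Otherwise, values were interpolated linearly from a five-concentration, 48-hour dose response in 96-well plates. At the GI50, growth is halved.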 Active and inactive are the calls of the source. Rule as the data show it: active = GI50 up to about 1.1 µM and inactive = higher.
Columns and labels:
Assay in all cases: NCI anticancer screen, dose series, 48 h
786-0 = system: 786-0
A498 = system: A498
A549 = system: A549
ACHN = system: ACHN
CAKI-1 = system: CAKI-1
CCRF-CEM = system: CCRF-CEM
COLO 205 = system: COLO 205
DU-145 = system: DU-145
EKVX = system: EKVX
HCC 2998 = system: HCC 2998
HCT-116 = system: HCT-116
HCT-15 = system: HCT-15
HL-60 = system: HL-60
HOP-62 = system: HOP-62
HOP-92 = system: HOP-92
HT-29 = system: HT-29
Hs-578T = system: Hs-578T
IGROV-1 = system: IGROV-1
K562 = system: K562
KM12 = system: KM12
LOX IMVI = system: LOX IMVI
M14 = system: M14
MCF7 = system: MCF7
MDA-MB-231 = system: MDA-MB-231
MDA-MB-435 = system: MDA-MB-435
MDA-N = system: MDA-N
MOLT-4 = system: MOLT-4
Malme-3M = system: Malme-3M
NCI-H226 = system: NCI-H226
NCI-H23 = system: NCI-H23
NCI-H460 = system: NCI-H460
NCI-H522 = system: NCI-H522
NCI/ADR-RES = system: NCI/ADR-RES
OVCAR-3 = system: OVCAR-3
OVCAR-4 = system: OVCAR-4
OVCAR-5 = system: OVCAR-5
OVCAR-8 = system: OVCAR-8
PC-3 = system: PC-3
RXF 393 = system: RXF 393
SF-268 = system: SF-268
SF-295 = system: SF-295
SF-539 = system: SF-539
SK-MEL-28 = system: SK-MEL-28
SK-MEL-2 = system: SK-MEL-2
SK-MEL-5 = system: SK-MEL-5
SK-OV-3 = system: SK-OV-3
SN12C = system: SN12C
SNB-19 = system: SNB-19
SNB-75 = system: SNB-75
SR = system: SR
SW-620 = system: SW-620
T47D = system: T47D
TK-10 = system: TK-10
U-251 = system: U-251
UACC-257 = system: UACC-257
UACC-62 = system: UACC-62
UO-31 = system: UO-31

`COc1cccc(C2c3cc4c(cc3OC(C)(N3CCCC3)C2C)OCO4)c1` (configuration not stated) was tested. Which GI50 (786-0) did it give?
Its GI50 is 26.1 µM (inactive).

What about the GI50 (A498) of the same compound?
The GI50 was 14 µM (inactive).

And the GI50 (A549)?
The GI50 was 7.55 µM (inactive).

What about the GI50 (ACHN) of the same compound?
The GI50 was 17.6 µM (inactive).

What about the GI50 (CAKI-1) of the same compound?
The GI50 was 17.1 µM (inactive).

What about the GI50 (CCRF-CEM) of the same compound?
Its GI50 is 32.7 µM (inactive).

And the GI50 (COLO 205)?
Its GI50 is 11.4 µM (inactive).

And the GI50 (DU-145)?
Its GI50 is 20.7 µM (inactive).

What about the GI50 (EKVX) of the same compound?
The GI50 was 24.6 µM (inactive).

And the GI50 (HCC 2998)?
The GI50 was 13.1 µM (inactive).

And the GI50 (HCT-116)?
Its GI50 is 7.62 µM (inactive).

What about the GI50 (HCT-15) of the same compound?
The GI50 was 5.35 µM.

And the GI50 (HL-60)?
The GI50 was 23.1 µM (inactive).

And the GI50 (HOP-62)?
The GI50 was 6.62 µM (inactive).

And the GI50 (HOP-92)?
The GI50 was 10.2 µM (inactive).

And the GI50 (HT-29)?
Its GI50 is 3.77 µM (inactive).

What about the GI50 (Hs-578T) of the same compound?
The GI50 was 3.07 µM (inactive).

What about the GI50 (IGROV-1) of the same compound?
Its GI50 is 8.38 µM (inactive).

And the GI50 (K562)?
The GI50 was 58.3 µM (inactive).

And the GI50 (KM12)?
The GI50 was 4 µM (inactive).

And the GI50 (LOX IMVI)?
Its GI50 is 10.6 µM (inactive).

And the GI50 (M14)?
The GI50 was 4.12 µM (inactive).

And the GI50 (MCF7)?
The GI50 was 9.51 µM (inactive).

And the GI50 (MDA-MB-231)?
Its GI50 is 7.78 µM (inactive).

What about the GI50 (MDA-MB-435) of the same compound?
The GI50 was 4.19 µM (inactive).

What about the GI50 (MDA-N) of the same compound?
Its GI50 is 2.13 µM (inactive).

And the GI50 (MOLT-4)?
The GI50 was 51.3 µM (inactive).

And the GI50 (Malme-3M)?
Its GI50 is 11.6 µM (inactive).

And the GI50 (NCI-H226)?
Its GI50 is 6.4 µM (inactive).

And the GI50 (NCI-H23)?
The GI50 was 20.5 µM (inactive).

And the GI50 (NCI-H460)?
The GI50 was 9.62 µM (inactive).

What about the GI50 (NCI-H522) of the same compound?
The GI50 was 2.37 µM (inactive).

And the GI50 (NCI/ADR-RES)?
The GI50 was 6.9 µM (inactive).

And the GI50 (OVCAR-3)?
The GI50 was 4.89 µM (inactive).

What about the GI50 (OVCAR-4) of the same compound?
Its GI50 is 14.3 µM (inactive).

What about the GI50 (OVCAR-5) of the same compound?
Its GI50 is 7.73 µM (inactive).

What about the GI50 (OVCAR-8) of the same compound?
Its GI50 is 20.9 µM (inactive).

And the GI50 (PC-3)?
Its GI50 is 16.3 µM (inactive).

And the GI50 (RXF 393)?
Its GI50 is 14 µM (inactive).

What about the GI50 (SF-268) of the same compound?
Its GI50 is 27.4 µM (inactive).

What about the GI50 (SF-295) of the same compound?
Its GI50 is 8.83 µM (inactive).

And the GI50 (SF-539)?
Its GI50 is 13.9 µM (inactive).

What about the GI50 (SK-MEL-28) of the same compound?
Its GI50 is 20.3 µM (inactive).

And the GI50 (SK-MEL-2)?
The GI50 was 2.45 µM (inactive).

And the GI50 (SK-MEL-5)?
Its GI50 is 3.92 µM (inactive).

And the GI50 (SK-OV-3)?
The GI50 was 11.9 µM (inactive).

And the GI50 (SN12C)?
Its GI50 is 17.2 µM (inactive).

What about the GI50 (SNB-19) of the same compound?
Its GI50 is 21.9 µM (inactive).

And the GI50 (SNB-75)?
Its GI50 is 3.18 µM (inactive).

And the GI50 (SR)?
The GI50 was 9.48 µM (inactive).

What about the GI50 (SW-620) of the same compound?
The GI50 was 6.55 µM (inactive).

And the GI50 (T47D)?
Its GI50 is 11.2 µM (inactive).

What about the GI50 (TK-10) of the same compound?
The GI50 was 10.9 µM (inactive).

And the GI50 (U-251)?
Its GI50 is 7.59 µM (inactive).

What about the GI50 (UACC-257) of the same compound?
The GI50 was 18.2 µM (inactive).

And the GI50 (UACC-62)?
The GI50 was 5.38 µM (inactive).

What about the GI50 (UO-31) of the same compound?
Its GI50 is 13.1 µM (inactive).

Which GI50 (786-0) does the source give for `CC1(C)Oc2ccc3c(=O)cc(-c4cccs4)oc3c2C1C(=O)O` (configuration not stated) here?
Its GI50 is > 100 µM (inactive).

What about the GI50 (A498) of the same compound?
Its GI50 is > 100 µM (inactive).

What about the GI50 (A549) of the same compound?
The GI50 was > 100 µM (inactive).

And the GI50 (CAKI-1)?
Its GI50 is 23.2 µM (inactive).

What about the GI50 (CCRF-CEM) of the same compound?
Its GI50 is > 100 µM (inactive).

What about the GI50 (COLO 205) of the same compound?
Its GI50 is > 100 µM (inactive).

And the GI50 (DU-145)?
The GI50 was > 100 µM (inactive).

What about the GI50 (EKVX) of the same compound?
The GI50 was > 100 µM (inactive).

And the GI50 (HCC 2998)?
Its GI50 is > 100 µM (inactive).

What about the GI50 (HCT-116) of the same compound?
The GI50 was > 100 µM (inactive).

What about the GI50 (HL-60) of the same compound?
Its GI50 is > 100 µM (inactive).

And the GI50 (HOP-62)?
Its GI50 is > 100 µM (inactive).

And the GI50 (HT-29)?
The GI50 was > 100 µM (inactive).

What about the GI50 (Hs-578T) of the same compound?
The GI50 was > 100 µM (inactive).

What about the GI50 (IGROV-1) of the same compound?
Its GI50 is > 100 µM (inactive).

And the GI50 (K562)?
Its GI50 is > 100 µM (inactive).

And the GI50 (M14)?
Its GI50 is > 100 µM (inactive).

What about the GI50 (MCF7) of the same compound?
Its GI50 is > 100 µM (inactive).

And the GI50 (MDA-MB-231)?
Its GI50 is > 100 µM (inactive).

What about the GI50 (MDA-MB-435) of the same compound?
The GI50 was > 100 µM (inactive).

And the GI50 (MDA-N)?
Its GI50 is > 100 µM (inactive).

And the GI50 (MOLT-4)?
Its GI50 is > 100 µM (inactive).

What about the GI50 (Malme-3M) of the same compound?
The GI50 was > 100 µM (inactive).

And the GI50 (NCI-H226)?
The GI50 was > 100 µM (inactive).

What about the GI50 (NCI-H23) of the same compound?
Its GI50 is > 100 µM (inactive).

What about the GI50 (NCI-H522) of the same compound?
The GI50 was > 100 µM (inactive).

And the GI50 (NCI/ADR-RES)?
The GI50 was > 100 µM (inactive).

What about the GI50 (OVCAR-3) of the same compound?
Its GI50 is > 100 µM (inactive).

And the GI50 (OVCAR-5)?
The GI50 was > 100 µM (inactive).

What about the GI50 (OVCAR-8) of the same compound?
Its GI50 is > 100 µM (inactive).

What about the GI50 (PC-3) of the same compound?
Its GI50 is > 100 µM (inactive).

What about the GI50 (RXF 393) of the same compound?
Its GI50 is > 100 µM (inactive).

What about the GI50 (SF-268) of the same compound?
Its GI50 is > 100 µM (inactive).

And the GI50 (SF-295)?
The GI50 was > 100 µM (inactive).

What about the GI50 (SF-539) of the same compound?
Its GI50 is > 100 µM (inactive).

What about the GI50 (SK-MEL-2) of the same compound?
The GI50 was > 100 µM (inactive).

And the GI50 (SK-MEL-5)?
The GI50 was > 100 µM (inactive).

And the GI50 (SK-OV-3)?
The GI50 was > 100 µM (inactive).

And the GI50 (SN12C)?
The GI50 was > 100 µM (inactive).

What about the GI50 (SR) of the same compound?
The GI50 was > 100 µM (inactive).

What about the GI50 (T47D) of the same compound?
The GI50 was > 100 µM (inactive).

What about the GI50 (TK-10) of the same compound?
The GI50 was > 100 µM (inactive).

What about the GI50 (U-251) of the same compound?
Its GI50 is > 100 µM (inactive).

And the GI50 (UACC-257)?
The GI50 was > 100 µM (inactive).

What about the GI50 (UACC-62) of the same compound?
The GI50 was > 10 µM (inactive).

— ChEMBL document CHEMBL1201862, “PubChem BioAssay data set” (2004)
